IC50 and SDMA inhibition data for 25 molecules are collected here from US12331035B2, “Bicyclic compound and use thereof” (SK BIOPHARMACEUTICALS CO., LTD., priority 2019, dated 2025).

The target of one test is T1, PRMT5-MEP50 enzyme complex (Homo sapiens, UniProt O14744).
T1 construct: purchased BPS Bioscience (USA) 51045
T1 sequence (O14744 2-637 limits assumed): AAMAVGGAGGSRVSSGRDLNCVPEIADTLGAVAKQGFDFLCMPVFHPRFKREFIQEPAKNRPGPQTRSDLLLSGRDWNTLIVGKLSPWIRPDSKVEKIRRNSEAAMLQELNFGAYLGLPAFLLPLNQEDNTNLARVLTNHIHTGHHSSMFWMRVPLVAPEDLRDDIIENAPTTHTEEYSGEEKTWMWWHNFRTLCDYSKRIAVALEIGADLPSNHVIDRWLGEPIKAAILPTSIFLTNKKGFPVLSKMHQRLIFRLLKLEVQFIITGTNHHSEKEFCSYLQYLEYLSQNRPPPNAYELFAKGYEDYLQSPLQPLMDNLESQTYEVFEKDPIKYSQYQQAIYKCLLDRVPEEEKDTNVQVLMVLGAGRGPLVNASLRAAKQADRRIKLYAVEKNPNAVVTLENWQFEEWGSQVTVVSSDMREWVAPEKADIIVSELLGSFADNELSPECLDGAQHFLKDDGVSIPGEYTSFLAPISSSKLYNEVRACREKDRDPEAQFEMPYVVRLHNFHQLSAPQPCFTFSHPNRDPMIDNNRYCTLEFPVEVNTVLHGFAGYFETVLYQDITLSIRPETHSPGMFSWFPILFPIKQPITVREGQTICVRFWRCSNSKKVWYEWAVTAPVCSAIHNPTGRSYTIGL
T1 sequence (Q9BQA1 2-342 partner limits assumed): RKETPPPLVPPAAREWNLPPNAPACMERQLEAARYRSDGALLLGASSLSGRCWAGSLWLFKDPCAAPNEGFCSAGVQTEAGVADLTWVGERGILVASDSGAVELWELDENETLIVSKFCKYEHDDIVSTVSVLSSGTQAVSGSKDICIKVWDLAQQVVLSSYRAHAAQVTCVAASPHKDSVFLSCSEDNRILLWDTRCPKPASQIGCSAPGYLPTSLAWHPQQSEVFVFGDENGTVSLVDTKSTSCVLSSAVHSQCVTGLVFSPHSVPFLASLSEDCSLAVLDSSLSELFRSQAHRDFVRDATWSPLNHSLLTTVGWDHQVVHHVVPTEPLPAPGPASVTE
In words: In vitro PRMT5 enzyme activity assay (methylation of histone H4 arginine H4R3, ELISA absorbance at 450 nm). Format: biochemical. To be noted: S-adenosylmethionine, histone H4 peptide, 2 hours at room temperature, 8 points 10 μM to 0.128 nM. In short, it runs like this: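 Human PRMT5-MEP50 (5 μg/mL working stock) with 2 μM SAM stock on histone H4 (1-20) peptide-coated plates, compound 8-point 1:5 series from 10 μM, 2 h at room temperature. H4R3 methylation detected by antibody/HRP ELISA, absorbance 450 nm; IC50 calculated.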
In general terms: In an ELISA, binding on a coated surface is turned into a signal by an enzyme label.
A word on the IC50: it is the concentration needed to halve the response being measured. As for `CN1CCC(Oc2ccc3c(c2)CCN(C[C@H](O)CN2CCc4ccccc4C2)C3=O)CC1` [Example 135, 2-[(2R)-3-(3,4-dihydro-1H-isoquinolin-2-yl)-2-hydroxy-propyl]-6-[(1-methyl-4-piperidyl)oxy]-3,4-dihydroisoquinolin-1-one], the IC50 is 100 to 1000 nM.

Take `O=C1c2ccc(N3CCOCC3)cc2CCN1C[C@H](O)CN1CCc2ccccc2C1` [Example 4, 2-[(2R)-3-(3,4-dihydro-1H-isoquinolin-2-yl)-2-hydroxy-propyl]-6-morpholino-3,4-dihydroisoquinoline-1-one]: the IC50 fell in the range of 1 to 100 nM.

Molecule `O=C(Nc1ccc2c(c1)CCN(C[C@H](O)CN1CCc3ccccc3C1)C2=O)c1ccncc1` [Example 27, N-[2-[(2R)-3-(3,4-dihydro-1H-isoquinolin-2-yl)-2-hydroxy-propyl]-1-oxo-3,4-dihydroisoquinolin-6-yl]pyridine-4-carboxamide] came in with an IC50 of 100 to 1000 nM.

On to `O=C1c2ccc(N3CC4CC3CO4)cc2CCN1C[C@H](O)CN1CCc2ccccc2C1` (stereo partly drawn) [Example 73, 2-[(2R)-3-(3,4-dihydro-1H-isoquinolin-2-yl)-2-hydroxy-propyl]-6-(2-oxa-5-azabicyclo[2.2.1]heptan-5-yl)-3,4-dihydroisoquinolin-1-one], for which the IC50 was in the range of 100 to 1000 nM.

Consider `O=C1c2ccc(N3CCOC3=O)cc2CCN1C[C@H](O)CN1CCc2ccccc2C1` [Example 45, 3-[2-[(2R)-3-(3,4-dihydro-1H-isoquinolin-2-yl)-2-hydroxy-propyl]-1-oxo-3,4-dihydroisoquinolin-6-yl]oxazolidin-2-one], for which the IC50 lay in the range of 100 to 1000 nM.

In the case of `CC1CN(c2ccc3c(c2)CCN(C[C@H](O)CN2CCc4ccccc4C2)C3=O)CC(=O)N1C` (stereo partly drawn) [Example 103, 2-[(2R)-3-(3,4-dihydro-1H-isoquinolin-2-yl)-2-hydroxy-propyl]-6-(3,4-dimethyl-5-oxo-piperazin-1-yl)-3,4-dihydroisoquinolin-1-one], the half-inhibitory concentration (IC50) was 1 to 100 nM.

`COC1CCN(Cc2ccc3c(c2)CCN(C[C@H](O)CN2CCc4ccccc4C2)C3=O)CC1` [Example 66, 2-[(2R)-3-(3,4-dihydro-1H-isoquinolin-2-yl)-2-hydroxy-propyl]-6-[(4-methoxy-1-piperidyl)methyl]-3,4-dihydroisoquinolin-1-one] gave an IC50 of 1 to 100 nM.

In turn, `O=C1c2ccc(N3CCCC(O)C3)cc2CCN1C[C@H](O)CN1CCc2ccccc2C1` (stereo partly drawn) [Example 38, 2-[(2R)-3-(3,4-dihydro-1H-isoquinolin-2-yl)-2-hydroxy-propyl]-6-(3-hydroxy-1-piperidyl)-3,4-dihydroisoquinolin-1-one] showed an IC50 of 100 to 1000 nM.

As for `C[C@@H]1CN(c2ccc3c(c2)CCN(C[C@H](O)CN2CCc4ccccc4C2)C3=O)C[C@H](C)O1` [Example 14, 2-[(2R)-3-(3,4-dihydro-1H-isoquinolin-2-yl)-2-hydroxy-propyl]-6-[(2R,6S)-2,6-dimethylmorpholin-4-yl]-3,4-dihydroisoquinolin-1-one], the 50% inhibitory concentration (IC50) lay in the range of 100 to 1000 nM.

`O=C(Nc1ccc2c(c1)CCN(C[C@H](O)CN1CCc3ccccc3C1)C2=O)c1cccnc1` [Example 26, N-[2-[(2R)-3-(3,4-dihydro-1H-isoquinolin-2-yl)-2-hydroxy-propyl]-1-oxo-3,4-dihydroisoquinolin-6-yl]pyridine-3-carboxamide] returned a 50% inhibitory concentration (IC50) of 1 to 100 nM.

Consider `COC(=O)N1CCN(c2ccc3c(c2)CCN(C[C@H](O)CN2CCc4ccccc4C2)C3=O)CC1` [Example 60, methyl 4-[2-[(2R)-3-(3,4-dihydro-1H-isoquinolin-2-yl)-2-hydroxy-propyl]-1-oxo-3,4-dihydroisoquinolin-6-yl]piperazine-1-carboxylate], for which the IC50 lay in the range of 100 to 1000 nM.

The molecule `CC(=O)N1CCN(Cc2ccc3c(c2)CCN(C[C@H](O)CN2CCc4ccccc4C2)C3=O)CC1` [Example 68, 6-[(4-acetylpiperazin-1-yl)methyl]-2-[(2R)-3-(3,4-dihydro-1H-isoquinolin-2-yl)-2-hydroxy-propyl]-3,4-dihydroisoquinolin-1-one] yielded an IC50 of 1 to 100 nM.

The molecule `CN(C)CC1CCN(c2ccc3c(c2)CCN(C[C@H](O)CN2CCc4ccccc4C2)C3=O)CC1` [Example 117, 2-[(2R)-3-(3,4-dihydro-1H-isoquinolin-2-yl)-2-hydroxy-propyl]-6-[4-[(dimethylamino)methyl]-1-piperidyl]-3,4-dihydroisoquinolin-1-one] came in with an IC50 of 100 to 1000 nM.

In turn, `O=C1c2ccc(NCc3ccccc3)cc2CCN1C[C@H](O)CN1CCc2ccccc2C1` [Example 7, 6-(benzylamino)-2-[(2R)-3-(3,4-dihydro-1H-isoquinolin-2-yl)-2-hydroxy-propyl]-3,4-dihydroisoquinolin-1-one] gave an IC50 of 1 to 100 nM.

`CN1CCN(c2ccc3c(c2)CCN(C[C@H](O)CN2CCc4ccccc4C2)C3=O)CC1=O` [Example 55, 2-[(2R)-3-(3,4-dihydro-1H-isoquinolin-2-yl)-2-hydroxy-propyl]-6-(4-methyl-3-oxo-piperazin-1-yl)-3,4-dihydroisoquinolin-1-one] returned a half-maximal inhibitory concentration (IC50) of 1 to 100 nM.

`CC(=O)N1CCN(c2ccc3c(c2)CCN(C[C@H](O)CN2CCc4ccccc4C2)C3=O)CC12CC2` [Example 82, 6-(4-acetyl-4,7-diazaspiro[2.5]octan-7-yl)-2-[(2R)-3-(3,4-dihydro-1H-isoquinolin-2-yl)-2-hydroxy-propyl]-3,4-dihydroisoquinolin-1-one] showed a half-inhibitory concentration (IC50) of 1 to 100 nM.

Turning to `O=CN1CCN(c2ccc3c(c2)CCN(C[C@H](O)CN2CCc4ccccc4C2)C3=O)CC1` [Example 87, 4-[2-[(2R)-3-(3,4-dihydro-1H-isoquinolin-2-yl)-2-hydroxy-propyl]-1-oxo-3,4-dihydroisoquinolin-6-yl]piperazine-1-carbaldehyde], the IC50 fell in the range of 1 to 100 nM.

The molecule `CC(=O)N1CCCN(c2ccc3c(c2)CCN(C[C@H](O)CN2CCc4ccccc4C2)C3=O)CC1` [Example 80, 6-(4-acetyl-1,4-diazepan-1-yl)-2-[(2R)-3-(3,4-dihydro-1H-isoquinolin-2-yl)-2-hydroxy-propyl]-3,4-dihydroisoquinolin-1-one] registered an IC50 of 1 to 100 nM.

`O=C1c2ccc(-c3ccncc3)cc2CCN1C[C@H](O)CN1CCc2ccccc2C1` [Example 8, 2-[(2R)-3-(3,4-dihydro-1H-isoquinolin-2-yl)-2-hydroxy-propyl]-6-(4-pyridyl)-3,4-dihydroisoquinolin-1-one] registered an IC50 of 1 to 100 nM.

In turn, `O=C1c2ccc(N3CCC(N4CCCCC4)CC3)cc2CCN1C[C@H](O)CN1CCc2ccccc2C1` [Example 107, 2-[(2R)-3-(3,4-dihydro-1H-isoquinolin-2-yl)-2-hydroxy-propyl]-6-[4-(1-piperidyl)-1-piperidyl]-3,4-dihydroisoquinolin-1-one] returned an IC50 of 100 to 1000 nM.

Consider `CC(=O)N(C)C1CCN(c2ccc3c(c2)CCN(C[C@H](O)CN2CCc4ccccc4C2)C3=O)CC1` [Example 90, N-[1-[2-[(2R)-3-(3,4-dihydro-1H-isoquinolin-2-yl)-2-hydroxy-propyl]-1-oxo-3,4-dihydroisoquinolin-6-yl]-4-piperidyl]-N-methyl-acetamide], for which the IC50 lay in the range of 1 to 100 nM.

For `CC(=O)N1CCC(Nc2ccc3c(c2)CCN(C[C@H](O)CN2CCc4ccccc4C2)C3=O)C1` (stereo partly drawn) [Example 99, 6-[(1-acetylpyrrolidin-3-yl)amino]-2-[(2R)-3-(3,4-dihydro-1H-isoquinolin-2-yl)-2-hydroxy-propyl]-3,4-dihydroisoquinolin-1-one], the IC50 was in the range of 100 to 1000 nM.

In turn, `O=C1c2ccc(C#CCO)cc2CCN1C[C@H](O)CN1CCc2ccccc2C1` [Example 137, 2-[(2R)-3-(3,4-dihydro-1H-isoquinolin-2-yl)-2-hydroxypropyl]-6-(3-hydroxyprop-1-ynyl)-3,4-dihydroisoquinolin-1-one] came in with an IC50 of 100 to 1000 nM.

As to `CN(C)C(=O)C1CCN(c2ccc3c(c2)CCN(C[C@H](O)CN2CCc4ccccc4C2)C3=O)CC1` [Example 97, 1-[2-[(2R)-3-(3,4-dihydro-1H-isoquinolin-2-yl)-2-hydroxy-propyl]-1-oxo-3,4-dihydroisoquinolin-6-yl]-N,N-dimethyl-piperidine-4-carboxamide], the IC50 fell in the range of 100 to 1000 nM.

Regarding `CN1CCN(c2ccc3c(c2)CCN(C[C@H](O)CN2CCc4ccccc4C2)C3=O)CCC1=O` [Example 84, 2-[(2R)-3-(3,4-dihydro-1H-isoquinolin-2-yl)-2-hydroxy-propyl]-6-(4-methyl-5-oxo-1,4-diazepan-1-yl)-3,4-dihydroisoquinolin-1-one], the IC50 fell in the range of 100 to 1000 nM.

Another test has as its system SDMA levels in the tumor. The test can be described thus: Test for in vivo target inhibitory activity (SDMA levels in U87MG tumor). To be noted: U87MG tumor cells implanted subcutaneously in nude mice, oral 25 or 50 mg/kg 1-2 times daily for one week. As for the experimental part:
Test for In Vivo Target Inhibitory Activity
After U87MG tumor cells were implanted subcutaneously in nude mice, a PRMT5 inhibitor was administered orally (25 or 50 mg/kg) 1-2 times daily for one week, and then the degree to which SDMA levels in the tumor decreased was measured.
Reagents: Bradford's solution (Catalog No. 500-0006) was purchased from Bio-rad (USA). SDMA antibody (Catalog No. 13222s) was purchased from Cell Signaling Technology (USA). SmD3 antibody (Catalog No. ap12451a) was purchased from Abgent (USA), and secondary antibody (Catalog No. ab6721) and TMB substrate (Catalog No. ab210902) were purchased from Abcam (UK).
Experimental procedure: The tumor tissues transplanted into the mice were excised, the cells were lysed, and then quantified with Bradford's solution. 5-10 μg of protein per sample was diluted with carbonate-bicarbonate buffer and dispensed into a 96-well plate and reacted at room temperature for 2 hours. After washing with phosphate buffered saline (PBST) containing 0.05% Tween-20 3 times, 200 μL of PBST containing 5% bovine serum albumin (BSA-PBST) was added and reacted at room temperature for 2 hours. After washing with PBST 3 times, the SDMA antibody and the SmD3 antibody were diluted in BSA-PBST, and 100 μL of each was dispensed onto the plate and reacted at 4° C. overnight. After washing with PBST 3 times the next day, 100 μL of the secondary antibody diluted in BSA-PBST was added and reacted at room temperature for 1 hour. After washing with PBST 3 times, 100 μL of TMB substrate was added and reacted at room temperature for 10-20 minutes, and 100 μL of 1N sulfuric acid solution was added to terminate the reaction. Then, the absorbance at 450 nm was measured to calculate the degree of SDMA inhibition by the compound. (+++: more than 70%, ++: more than 30% and 70% or less, +: 30% or less)
Take `CN1CCC(Oc2ccc3c(c2)CCN(C[C@H](O)CN2CCc4ccccc4C2)C3=O)CC1` [Example 135, 2-[(2R)-3-(3,4-dihydro-1H-isoquinolin-2-yl)-2-hydroxy-propyl]-6-[(1-methyl-4-piperidyl)oxy]-3,4-dihydroisoquinolin-1-one]: the SDMA inhibition entry is “+++ (+++: more than 70%)”.

In the case of `O=C1c2ccc(N3CCOCC3)cc2CCN1C[C@H](O)CN1CCc2ccccc2C1` [Example 4, 2-[(2R)-3-(3,4-dihydro-1H-isoquinolin-2-yl)-2-hydroxy-propyl]-6-morpholino-3,4-dihydroisoquinoline-1-one], the SDMA inhibition entry was “++ (++: more than 30% and 70% or less)”.

For `C[C@@H]1CN(c2ccc3c(c2)CCN(C[C@H](O)CN2CCc4ccccc4C2)C3=O)C[C@H](C)O1` [Example 14, 2-[(2R)-3-(3,4-dihydro-1H-isoquinolin-2-yl)-2-hydroxy-propyl]-6-[(2R,6S)-2,6-dimethylmorpholin-4-yl]-3,4-dihydroisoquinolin-1-one], the SDMA inhibition result was “+++ (+++: more than 70%)”.

In the case of `O=CN1CCN(c2ccc3c(c2)CCN(C[C@H](O)CN2CCc4ccccc4C2)C3=O)CC1` [Example 87, 4-[2-[(2R)-3-(3,4-dihydro-1H-isoquinolin-2-yl)-2-hydroxy-propyl]-1-oxo-3,4-dihydroisoquinolin-6-yl]piperazine-1-carbaldehyde], the SDMA inhibition entry is “++ (++: more than 30% and 70% or less)”.
